According to patent US8957062B2, “Substituted cyclopropyl compounds, compositions containing such compounds and methods of treatment” (Merck Sharp & Dohme Corp., priority 2011, dated 2015):

Target: T1, human GPR119 (Homo sapiens, UniProt Q8TDV5)
T1 sequence (Q8TDV5 1-308 limits assumed): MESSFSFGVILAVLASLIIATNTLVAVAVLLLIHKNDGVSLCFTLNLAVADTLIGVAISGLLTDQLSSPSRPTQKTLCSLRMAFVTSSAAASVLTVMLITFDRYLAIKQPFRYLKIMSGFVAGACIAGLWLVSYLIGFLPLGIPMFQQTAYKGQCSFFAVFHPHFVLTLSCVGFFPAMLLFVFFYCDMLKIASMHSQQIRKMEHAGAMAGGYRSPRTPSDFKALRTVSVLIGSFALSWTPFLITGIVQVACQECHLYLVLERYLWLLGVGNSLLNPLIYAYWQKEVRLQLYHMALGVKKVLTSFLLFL
Assay: Measurement of GPR119 signaling (cAMP assay) in cells stably transfected with human GPR119
Type: cell-based
Settings: cAMP stimulation; read-out: GPR119 HumC EC50
Description: Measurement of GPR119 Signaling (Cyclic AMP (cAMP) Assay)
The adenylate cyclase assay was constructed following the LANCE™ cAMP Kit (Perkin Elmer, AD0264) instructions.
The reaction was stopped by incubating with the supplied detection buffer containing the europium chelate of the Eu-SA/Biotin-cAMP tracer for 3 hours. The assay was performed in duplicate in a 384 well plate for duplicate plates and fluorescence was measured at 665 nm. Basal activity was determined using a DMSO control and maximum response was defined as cAMP stimulation produced by an internal agonist control. Standard cAMP concentrations were assayed concurrently for conversion of fluorescence signal to cAMP level. The data was analyzed using 4-parameter curve fit in Microsoft Excel.
Measurement of GPR119 Signaling (cAMP Homogenous Time Resolved Fluorescence (HTRF) Assay)
Chinese hamster ovary (CHO) cell lines stably transfected with the permissive guanine nucleotide binding protein alpha 15 (Gα15) and murine GPR119 were maintained in DMEM media containing FBS, penicillin-streptomycin, puromycin, and G418 (geneticin). […] Agonist activation of the GPR119 receptor was measured in receptor transfected cells described above, treated with compounds of this invention, using a commercial homogenous time resolved fluorescence (HTRF) kit for measurement of cAMP (CisBio, Bedford, Mass.). The assay was performed in 96-well half-volume plates (murine) or 384-well plates (human) following the manufacturers instructions. Briefly, suspended cells were incubated with a dose titration of test compound at RT for 60 min, lysed, and incubated with HTRF reagents for an additional 60 min. The plate was read using an Envision multilabel reader (Perkin Elmer) adjusted to read time resolved fluorescence and the cAMP concentrations were extrapolated from a cAMP calibration curve. […] The concentration of test compound required to stimulate a half-maximal response (EC50), and efficacy as compared to an internal agonist control, was determined from a sigmoidal 4-parameter curve fit of the resulting plot of normalized activity versus compound concentration.

In order of falling EC50:
1. CC1(O)CN(C(=O)Cc2ccc(OCC[C@@H]3C[C@@H]3C3CCN(C(=O)OC4(C)CC4)CC3)cc2F)C1 [Example 64]  9.5 nM
2. CC1(OC(=O)N2CCC([C@H]3C[C@H]3CCOc3ccc(CC(=O)N4CCOCC4)c(F)c3)CC2)CC1 [Example 67]  8.5 nM
3. CC1(OC(=O)N2CCC([C@H]3C[C@H]3CCOc3ccc(CC(=O)N4CCC[C@@H]4C(F)(F)F)c(F)c3)CC2)CC1 [Example 68]  5.1 nM
4. CC1(COC(=O)N2CCC([C@H]3C[C@H]3CCOc3ccc(CC(=O)N4CCC4)c(F)c3)CC2)CC1 [Example 72]  3.6 nM
5. CC1(OC(=O)N2CCC([C@H]3C[C@H]3CCOc3ccc(CC(=O)N4CCC4)c(C#N)c3)CC2)CC1 [Example 70]  2.7 nM
6. CCC1(OC(=O)N2CCC([C@H]3C[C@H]3CCOc3ccc(CC(=O)N4CCC4)c(F)c3)CC2)CC1 [Example 74]  2.7 nM
7. CN(C)C(=O)Cc1ccc(OCC[C@@H]2C[C@@H]2C2CCN(C(=O)OC3(C)CC3)CC2)cc1F [Example 66]  2.4 nM
8. O=C(Cc1ccc(OCC[C@@H]2C[C@@H]2C2CCN(C(=O)OCC3CCC3)CC2)cc1F)N1CCC1 [Example 73]  2.2 nM
9. CC1(OC(=O)N2CCC([C@H]3C[C@H]3CCOc3ccc(CC(=O)N4CCC4)c(Cl)c3)CC2)CC1 [Example 69]  1.5 nM
10. O=C(Cc1ccc(OCC[C@@H]2C[C@@H]2C2CCN(C(=O)OC3CCC3)CC2)cc1F)N1CCC1 [Example 71]  1.4 nM
11. CC1(OC(=O)N2CCC([C@H]3C[C@H]3CCOc3ccc(CC(=O)N4CC(F)C4)c(F)c3)CC2)CC1 [Example 63]  0.88 nM
12. CC(C)c1noc(N2CCC([C@H]3C[C@H]3CCOc3cc(F)c(CC(=O)N(C)C)cc3F)CC2)n1 [Example 75]  0.6 nM
13. CC1(OC(=O)N2CCC([C@H]3C[C@H]3CCOc3ccc(CC(=O)N4CC(F)(F)C4)c(F)c3)CC2)CC1 [Example 65]  0.49 nM

Same assay, conditions: stated in the example text without 'GPR119'; read-out: Human EC50

`CN(C)C(=O)Cc1cc(F)c(OCC[C@@H]2C[C@@H]2C2CCN(C(=O)OC3(C)CC3)CC2)cc1F` [Example 62, 1-methylcyclopropyl 4-[(1R,2S)-2-(2-{4-[2-(dimethylamino)-2-oxoethyl]-2,5-difluorophenoxy}ethyl)cyclopropyl]piperidine-1-carboxylate] gave an EC50 of 2.2 nM.

Same assay, conditions: stated in the example text; cAMP stimulation, human GPR119; read-out: GPR119 Human EC50

In order of falling EC50:
1. CC(C)(C)NC(=O)N1CCC([C@H]2C[C@H]2CCOc2ccc(-n3cnnn3)cc2)CC1 [Example 76, N-(tert-butyl)-4-((1R,2S)-2-(2-(4-(1H-tetrazol-1-yl)phenoxy)ethyl)cyclopropyl)piperidine-1-carboxamide]  14.7 nM
2. O=C(CC1CCCCC1)N1CCC([C@H]2C[C@H]2CCOc2ccc(-n3cnnn3)cc2)CC1 [Example 77, 1-(cyclohexylacetyl)-4-((1R,2S)-2-{2-[4-(1H-tetrazol-1-yl)phenoxy]ethyl}cyclopropyl)piperidine]  11.8 nM
3. CS(=O)(=O)c1ccc(OCC[C@@H]2C[C@@H]2C2CCN(C(=O)CC3CCCCC3)CC2)nc1 [Example 85, 2-(2-{(1S,2R)-2-[1-(cyclohexylacetyl)piperidin-4-yl]cyclopropyl}ethoxy)-5-(methylsulfonyl)pyridine]  11.8 nM
4. CC1(OC(=O)N2CCC([C@H]3C[C@H]3CCOc3ccc(CC(=O)N4CCC4)cc3)CC2)CC1 [Example 57]  5.9 nM
5. Cc1cc(OCC[C@@H]2C[C@@H]2C2CCN(C(=O)OC3(C)CC3)CC2)ccc1CC(=O)N1CCC1 [Example 60, 1-methylcyclopropyl-4-((1R,2S)-2-{2-[4-(2-azetidin-1-yl-2-oxoethyl)-3-methylphenoxy]ethyl}cyclopropyl)piperidine-1-carboxylate]  5.4 nM
6. CC1(OC(=O)N2CCC([C@H]3C[C@H]3CCOc3ccc(CC(=O)N4CCCC4)cc3)CC2)CC1 [Example 56]  4.7 nM
7. CC(C)OC(=O)N1CCC([C@H]2C[C@H]2CCOc2cc(F)c(C(=O)NC3CC3)c(F)c2)CC1 [Example 58]  3.5 nM
8. CC1(OC(=O)N2CCC([C@H]3C[C@H]3CCOc3ccc(CC(=O)N4CCC4)c(F)c3)CC2)CC1 [Example 59, 1-methylcyclopropyl 4-[(1R,2S)-2-(2-{4-[2-(azetidin-1-yl)-2-oxoethyl]-3-fluorophenoxy}ethyl)cyclopropyl]piperidine-1-carboxylate]  3.3 nM
9. O=C(Cc1ccc(OCC[C@@H]2C[C@@H]2C2CCN(C(=O)OCC3CC3)CC2)cc1F)N1CCC1 [Example 61, cyclopropylmethyl-4-((1R,2S)-2-{2-[4-(2-azetidin-1-yl-2-oxoethyl)-3-fluorophenoxy]ethyl}cyclopropyl)piperidine-1-carboxylate]  2 nM
10. CC(C)OC(=O)N1CCC([C@H]2C[C@H]2CCOc2cc(F)c(C(=O)C3CC3)c(F)c2)CC1 [Example 51]  0.8 nM

Same assay, conditions: table column; cAMP stimulation, human GPR119; read-out: GPR119 Human EC50

In order of falling EC50:
1. Cc1nc(C#N)cc(OCC[C@@H]2C[C@@H]2C2CCN(C(=O)CCC(F)(F)F)CC2)n1 [Example 96]  43 nM
2. CS(=O)(=O)c1ccc(OCC[C@@H]2C[C@@H]2C2CCN(C(=O)Cc3cccs3)CC2)nc1 [Example 91]  36 nM
3. CC(C)CC(=O)N1CCC([C@H]2C[C@H]2CCOc2ccc(S(C)(=O)=O)cn2)CC1 [Example 86]  29 nM
4. CC(C)CC(=O)N1CCC([C@H]2C[C@H]2CCOc2ccc(S(C)(=O)=O)c(F)c2)CC1 [Example 94]  19 nM
5. O=C(c1c(F)cc(OCC[C@@H]2C[C@@H]2C2CCN(C(=O)OCc3ccccc3)CC2)cc1F)C1CC1 [Example 53]  18 nM
6. O=C(CC1CCCC1)N1CCC([C@H]2C[C@H]2CCOc2ccc(-n3cnnn3)cc2)CC1 [Example 82]  16 nM
7. CC(C)(C)CC(=O)N1CCC([C@H]2C[C@H]2CCOc2ccc(S(C)(=O)=O)cn2)CC1 [Example 89]  16 nM
8. CS(=O)(=O)c1ccc(OCC[C@@H]2C[C@@H]2C2CCN(C(=O)CC3CC4C=CC3C4)CC2)nc1 (some centres unmarked) [Example 90]  16 nM
9. O=C(CC1CCC1)N1CCC([C@H]2C[C@H]2CCOc2ccc(-n3cnnn3)cc2)CC1 [Example 81]  15 nM
10. O=C(CC1(c2ccccc2)CCC1)N1CCC([C@H]2C[C@H]2CCOc2ccc(-n3cnnn3)cc2)CC1 [Example 83]  15 nM
11. CS(=O)(=O)c1ccc(OCC[C@@H]2C[C@@H]2C2CCN(C(=O)CC3CCC3)CC2)nc1 [Example 87]  13 nM
12. CS(=O)(=O)c1ccc(OCC[C@@H]2C[C@@H]2C2CCN(C(=O)CC3CCC3)CC2)cc1F [Example 92]  10 nM
13. O=C(CCC(F)(F)F)N1CCC([C@H]2C[C@H]2CCOc2ccc(-n3cnnn3)cc2)CC1 [Example 78]  8.5 nM
14. CC(C)CC(=O)N1CCC([C@H]2C[C@H]2CCOc2ccc(-n3cnnn3)cc2)CC1 [Example 79]  7.7 nM
15. CC(C)(C)CC(=O)N1CCC([C@H]2C[C@H]2CCOc2ccc(S(C)(=O)=O)c(F)c2)CC1 [Example 95]  5.4 nM
16. CS(=O)(=O)c1ccc(OCC[C@@H]2C[C@@H]2C2CCN(C(=O)CC3CCCC3)CC2)nc1 [Example 88]  4.6 nM
17. CS(=O)(=O)c1ccc(OCC[C@@H]2C[C@@H]2C2CCN(C(=O)CC3CCCC3)CC2)cc1F [Example 93]  4.6 nM
18. CC(C)(CC(=O)N1CCC([C@H]2C[C@H]2CCOc2ccc(-n3cnnn3)cc2)CC1)C1CC1 [Example 80]  4 nM
19. O=C(CC1CC2C=CC1C2)N1CCC([C@H]2C[C@H]2CCOc2ccc(-n3cnnn3)cc2)CC1 (some centres unmarked) [Example 84]  3.7 nM
20. O=C(NC1CC1)c1c(F)cc(OCC[C@@H]2C[C@@H]2C2CCN(C(=O)CCC(F)(F)F)CC2)cc1F [Example 97]  3.5 nM
21. CCOC(=O)N1CCC([C@H]2C[C@H]2CCOc2cc(F)c(C(=O)C3CC3)c(F)c2)CC1 [Example 55]  1.1 nM
22. CC1(OC(=O)N2CCC([C@H]3C[C@H]3CCOc3cc(F)c(C(=O)C4CC4)c(F)c3)CC2)CC1 [Example 54]  0.7 nM
23. CC(C)(C)OC(=O)N1CCC([C@H]2C[C@H]2CCOc2cc(F)c(C(=O)C3CC3)c(F)c2)CC1 [Example 52]  0.2 nM
